Source: patent US6596289B1, “Anti-cellulite pantyhose” (priority 1998, dated 2003)

Assay: Extraction and measurement of candidate molecules from loaded pantyhose in buffer
Type: physicochemical
Settings: for bonding to the fabric: conclusion from data of Table I; for Micrograms per/cm^2 @ 2 hr (amount extracted) / Micrograms per/cm @ 4 hr (amount extracted): swatch of treated fabric immersed in buffer solution; for Micrograms per/cm @ 4 hr (amount extracted): four hours
Method: Step 1: Determining UV Max Absorbance nm of Test Substances
Prepare 0.2% aqueous solutions of the substance to be tested, and run a UV/VIS scan on a scanning spectrophotometer. Note the peak absorbance level of the scan. The wave length at which this occurs is the UV Max value for that candidate.
Step 2: Running Standard Curves of Candidate Molecules
Prepare standards of the test substances at the following concentrations: 400 uM, 200 uM, 100 uM, 50 uM and 25 uM. Read at the appropriate wavelength. Plot the absorbance readings vs candidate concentration to check linearity.
Step 3: Loading Pantyhose with Candidate Molecules a. Wash pantyhose two times with water. b. Treat pantyhose with 1% solution of polyethylenimine (PEI) with constant agitation for 30 minutes. c. Wash pantyhose with water. d. Treat pantyhose with 0.2% of the test substance with constant agitation for three hours. e. Wash pantyhose and allow to dry.
Step 4: Extraction and Measurement of Candidate Molecules from Pantyhose Six sections were removed from each pair of hose, two sections from each of the foot, calf and thigh. A two piece, interlocking circular template was used. This template provided a way to obtain consistent sample size and also held the hose sections in position for sample extraction. Each template containing the pantyhose section was placed in 10 ml of buffer for 4 hours. An untreated pair of pantyhose was used as the blank and tested the same as the samples. At the end of two hours, and again at 4 hours, the buffer solution was read at the appropriate wave length using a quartz curette. Results were calculated from the standard curve and reported in micrograms/square centimeter (ug/cm^2).

Compound	bonding to the fabric	Micrograms per/cm^2 @ 2 hr (amount extracted) [Micrograms per/cm^2]	Micrograms per/cm @ 4 hr (amount extracted) [Micrograms per/cm]
O=C(O)CCCC[C@@H]1CCSS1 (racemic) [Lipoic Acid, lipoic acid]	bind in adequate degrees	1.2	1.5
O=C1O[C@H]([C@@H](O)CO)C(O)=C1O [Ascorbic Acid, ascorbic acid]	bind in adequate degrees	0.6	0.7
O=c1c(-c2ccc(O)cc2)coc2cc(O)cc(O)c12 [Genistein, 4′,5,7-trihydroxyisoflavone]	most strongly bonded	15.0	15.1
